Experimental data reported in patent publication US6376521B1, “A3 adenosine receptor antagonists” (The United States of America as represented by the …, priority 1998, dated 2002).
Read-outs that look alike come from different tables or passages of the source.

Legend:
human A3 receptors = biological target: T1, human A3 receptors (Homo sapiens, UniProt P0DMS8); assay: Displacement of specific [125I]AB-MECA binding at human A3 receptors expressed in HEK cells, in membranes; settings: for rA1/hA3: ratio of affinities rat A1 vs human A3; for Ki: [125I]AB-MECA, HEK cell membranes, n = 3-4, read-out: hA3 Ki ± S.E.M.
T1 construct: expressed in transfected cells
T1 sequence (P0DMS8 1-318): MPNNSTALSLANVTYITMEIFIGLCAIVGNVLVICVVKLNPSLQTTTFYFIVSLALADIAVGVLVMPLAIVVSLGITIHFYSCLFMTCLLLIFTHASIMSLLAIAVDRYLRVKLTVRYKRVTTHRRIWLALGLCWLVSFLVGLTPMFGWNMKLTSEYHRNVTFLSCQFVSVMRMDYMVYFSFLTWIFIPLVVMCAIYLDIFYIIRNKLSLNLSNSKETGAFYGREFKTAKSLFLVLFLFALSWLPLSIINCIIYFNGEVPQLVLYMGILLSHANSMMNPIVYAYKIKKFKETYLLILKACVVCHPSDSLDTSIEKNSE

A2A adenosine receptors = biological target: T2, A2A adenosine receptors (Rattus norvegicus, UniProt P30543); assay: Displacement of specific [3H]CGS 21680 binding in rat striatal membranes; settings: for inhibition at 100 µM: read-out: rA2A % inhibition (percentage of specific binding displaced); for Ki: [3H]CGS 21680, rat striatal membranes, n = 3-6, read-out: rA2A Ki ± S.E.M.
T2 construct: from tissue

A1 adenosine receptors = biological target: T3, A1 adenosine receptors (Rattus norvegicus, UniProt P25099); assay: Displacement of specific [3H]R-PIA binding in rat brain membranes; settings: for inhibition at 100 µM: read-out: rA1 % inhibition (percentage of specific binding displaced); for Ki: [3H]R-PIA, rat brain membranes, n = 3-5, read-out: rA1 Ki ± S.E.M.
T3 construct: from tissue
T3 sequence (P25099 1-326): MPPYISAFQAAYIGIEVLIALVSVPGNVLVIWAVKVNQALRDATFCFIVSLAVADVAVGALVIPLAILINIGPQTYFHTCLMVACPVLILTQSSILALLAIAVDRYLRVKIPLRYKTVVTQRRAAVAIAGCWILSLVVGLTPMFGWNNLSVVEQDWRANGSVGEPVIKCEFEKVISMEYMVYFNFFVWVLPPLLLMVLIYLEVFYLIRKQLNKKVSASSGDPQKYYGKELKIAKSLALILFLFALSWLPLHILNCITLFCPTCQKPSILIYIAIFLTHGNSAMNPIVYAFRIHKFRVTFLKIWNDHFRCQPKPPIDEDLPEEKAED

rat A3 receptors = biological target: T4, rat A3 receptors (Rattus norvegicus, UniProt P28647); assay: Displacement of specific [125I]AB-MECA binding at rat A3 receptors stably expressed in CHO cells; settings: Table 4
T4 construct: expressed in transfected cells
T4 sequence (P28647 1-320): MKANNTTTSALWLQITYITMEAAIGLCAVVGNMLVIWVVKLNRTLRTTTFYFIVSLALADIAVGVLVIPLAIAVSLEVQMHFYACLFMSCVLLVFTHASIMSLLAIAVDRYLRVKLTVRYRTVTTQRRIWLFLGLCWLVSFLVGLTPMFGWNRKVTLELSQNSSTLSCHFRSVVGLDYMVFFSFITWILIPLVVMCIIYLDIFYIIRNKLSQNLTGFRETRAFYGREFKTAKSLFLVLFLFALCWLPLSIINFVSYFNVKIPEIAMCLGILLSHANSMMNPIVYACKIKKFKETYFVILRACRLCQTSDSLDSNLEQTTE

T2 sequence (P30543 whole entry): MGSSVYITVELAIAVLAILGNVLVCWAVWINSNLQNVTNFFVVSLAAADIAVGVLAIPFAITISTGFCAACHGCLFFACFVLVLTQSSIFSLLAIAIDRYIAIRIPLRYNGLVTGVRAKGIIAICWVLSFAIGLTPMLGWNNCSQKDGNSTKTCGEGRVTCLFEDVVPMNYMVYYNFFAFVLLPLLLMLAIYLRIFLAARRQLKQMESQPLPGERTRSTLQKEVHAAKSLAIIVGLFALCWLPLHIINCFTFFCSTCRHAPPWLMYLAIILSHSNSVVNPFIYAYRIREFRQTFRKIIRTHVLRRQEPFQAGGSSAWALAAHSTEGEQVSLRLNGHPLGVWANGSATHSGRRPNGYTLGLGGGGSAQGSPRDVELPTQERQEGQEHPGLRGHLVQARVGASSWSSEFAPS

CCCc1c(C(=O)SCC)c(CC)nc(-c2ccccc2)c1C(=O)OCCCF [Compound 23]
rA1/hA3 (human A3 receptors; Table 2): 630

CCCc1c(C(=O)SCC)c(CC)nc(-c2ccccc2)c1C(=O)OCC(F)(F)C(F)(F)F [Compound 24]
rA1/hA3 (human A3 receptors; Table 2): 13

CCOC(=O)C1=C(C)NC(C2CCCCC2)=C(C(=O)OCc2ccccc2)C1C#Cc1ccccc1 (racemic) [Compound 73, 3-Ethyl 5-benzyl 2-methyl-4-phenylethynyl-6-cyclohexyl-1,4-(±)-dihydropyridine-3,5-dicarboxylate]
inhibition at 100 µM (A2A adenosine receptors; Table 3, at 10^−4 M): 20%
inhibition at 100 µM (A1 adenosine receptors; Table 3, at 10^−4 M): 22 ± 2%

CCOC(=O)c1c(CC)nc(-c2ccccc2)c(C(=O)OCC)c1C [Compound 46, 3,5-Diethyl 2-ethyl-4-methyl-6-phenylpyridine-3,5-dicarboxylate]
Ki (A2A adenosine receptors; Table 2, compounds 33-58): 13.4 ± 4.2 µM
Ki (human A3 receptors; Table 2, compounds 33-58): 121 ± 8 nM
rA1/hA3 (human A3 receptors; Table 2): 85
Ki (A1 adenosine receptors; Table 2, compounds 33-58): 10.3 ± 1.7 µM

CCCOC(=O)c1c(-c2ccccc2)nc(CC)c(C(=O)SCC)c1CC [Compound 6]
rA2A displacement of specific binding (class d) (A2A adenosine receptors; Table 2, at 10^−5 M): d (10^−5) (Displacement of <10% of specific binding at the indicated concentration (M).)
rA1/hA3 (human A3 receptors; Table 2): 8.20

CCCOC(=O)c1c(-c2ccccc2)nc(CC)c(C(=O)SCCO)c1CCC [Compound 12]
rA1/hA3 (human A3 receptors; Table 2): 210

CCOC(=O)c1c(C)nc(-c2ccccc2)c(C(=O)OCC)c1C=Cc1ccccc1 [Compound 42]
Ki (A2A adenosine receptors; Table 2, compounds 33-58): 2.4 ± 0.22 µM

CCOC(=O)C1=C(C)NC(c2ccccc2)=C(C(=O)OCC)C1C(OC)OC (racemic) [Compound 66, 3,5-Diethyl 2-methyl-6-phenyl-4-(dimethoxymethyl)-1,4-(±)-dihydropyridine-3,5-dicarboxylate]
rA2A displacement of specific binding (class d) (A2A adenosine receptors; Table 3, at 10^−4 M): d (10^−4) (Displacement of < 10% of specific binding at the indicated concentration (M).)
Ki (human A3 receptors; Table 3): 15300 ± 3900 nM
rA1/hA3 (human A3 receptors; Table 3): >5
inhibition at 100 µM (A1 adenosine receptors; Table 3, at 10^−4 M): 32 ± 5%

CCOC(=O)C1=C(C)NC(C2CCC2)=C(C(=O)OCc2ccccc2)C1C#Cc1ccccc1 (racemic) [Compound 71, 3-Ethyl 5-benzyl 2-methyl-4-phenylethynyl-6-cyclobutyl-1,4-(±)-dihydropyridine-3,5-dicarboxylate]
rA2A displacement of specific binding (class d) (A2A adenosine receptors; Table 3, at 10^−4 M): d (10^−4) (Displacement of < 10% of specific binding at the indicated concentration (M).)
inhibition at 100 µM (A1 adenosine receptors; Table 3, at 10^−4 M): 36 ± 8%

CCOC(=O)c1c(C)nc(-c2ccccc2)c(C(=O)OCC)c1CC [Compound 35, 3,5-Diethyl 2-methyl-4-ethyl-6-phenylpyridine-3,5-dicarboxylate]
Ki (A2A adenosine receptors; Table 2, compounds 33-58): 3.69 ± 1.25 µM
Ki (human A3 receptors; Table 2, compounds 33-58): 176 ± 38 nM
rA1/hA3 (human A3 receptors; Table 2): 19
Ki (A1 adenosine receptors; Table 2, compounds 33-58): 3.36 ± 0.6 µM

CCOC(=O)C1=C(C)NC(c2ccccc2)=C(C(=O)OCC)C1CC (racemic) [Compound 61, 3,5-Diethyl 2-methyl-4-ethyl-6-phenyl-1,4-(±)-dihydropyridine-3,5-dicarboxylate]
Ki (A2A adenosine receptors; Table 3): 21.8 ± 7.8 µM

CCCOC(=O)C1=C(C)NC(c2ccccc2)=C(C(=O)OCC)C1C (racemic) [Compound 60, 3-Propyl 5-ethyl 2,4-dimethyl-6-phenyl-1,4-(±)-dihydropyridine-3,5-dicarboxylate]
Ki (A2A adenosine receptors; Table 3): 28.9 ± 4.8 µM
Ki (A1 adenosine receptors; Table 3): 1.74 ± 3.1 µM

CCOC(=O)C1=C(c2ccccc2)NC(C)=C(C(=O)SCCOC)C1CC (racemic) [Compound 63, 5-Ethyl 2-methyl-4-ethyl-6-phenyl-3-[(2-methoxy-(ethylsulfanylcarbonyl)]-1,4-(±)-dihydropyridine-5-carboxylate]
Ki (A2A adenosine receptors; Table 3): 12.5 ± 2.5 µM
Ki (human A3 receptors; Table 3): 4580 ± 350 nM
rA1/hA3 (human A3 receptors; Table 3): >10
rA1 % inhibition (percentage of specific binding displaced) (A1 adenosine receptors; Table 3, at 10^−4 M): 36 ± 14%

CCOC(=O)C1=C(C)NC(c2ccccc2)=C(C(=O)OCC)C1C=O (racemic) [Compound 67, 3,5-Diethyl 2-methyl-6-phenyl-4-formyl-1,4(±)-dihydropyridine-3,5-dicarboxylate]
inhibition at 100 µM (A2A adenosine receptors; Table 3, at 10^−4 M): 32 ± 15%
Ki (human A3 receptors; Table 3): 15600 ± 5400 nM
rA1/hA3 (human A3 receptors; Table 3): >6
inhibition at 100 µM (A1 adenosine receptors; Table 3, at 10^−4 M): 26 ± 6%

CCOC(=O)C1=C(C)NC(C2CC2)=C(C(=O)OCc2ccccc2)C1C#Cc1ccccc1 (racemic) [Compound 70, 3-Ethyl 5-benzyl 2-methyl-4-phenylethynyl-6-cyclopropyl-1,4-(±)-dihydropyridine-3,5-dicarboxylate]
rA2A displacement of specific binding (class d) (A2A adenosine receptors; Table 3, at 10^−4 M): d (10^−4) (Displacement of < 10% of specific binding at the indicated concentration (M).)
inhibition at 100 µM (A1 adenosine receptors; Table 3, at 10^−4 M): 22 ± 1%

CCOC(=O)c1c(-c2ccccc2)nc(CCOC)c(C(=O)SCC)c1CC [Compound 56, 5-Ethyl 2-(2-methoxylethyl)-4-ethyl-3-(ethylsulfanylcarbonyl)-6-phenylpyridine-5-carboxylate]
Ki (A2A adenosine receptors; Table 2, compounds 33-58): 12.6 ± 1.7 µM
Ki (human A3 receptors; Table 2, compounds 33-58): 16.8 ± 2 nM
rA1/hA3 (human A3 receptors; Table 2): 600
Ki (A1 adenosine receptors; Table 2, compounds 33-58): 10.1 ± 2.1 µM

CCOC(=O)C1=C(CC)NC(c2ccccc2)=C(C(=O)OCC)C1C (racemic) [Compound 74, 3,5-Diethyl 2-ethyl-6-phenyl-4-methyl-1,4-(±)-dihydropyridine-3,5-dicarboxylate]
rA2A displacement of specific binding (class d) (A2A adenosine receptors; Table 3, at 10^−4 M): d (10^−4) (Displacement of < 10% of specific binding at the indicated concentration (M).)
inhibition at 100 µM (A1 adenosine receptors; Table 3, at 10^−4 M): 20 ± 4%

CCCCSC(=O)c1c(CC)nc(-c2cccc(Cl)c2)c(C(=O)OCCC)c1CC [Compound 7]
rA2A displacement of specific binding (class d) (A2A adenosine receptors; Table 2, at 10^−4 M): d (10^−4) (Displacement of <10% of specific binding at the indicated concentration (M).)
rA1/hA3 (human A3 receptors; Table 2): 7400

CCCOC(=O)c1c(-c2ccc(F)cc2)nc(CC)c(C(=O)SCC)c1CCC [Compound 27]
rA2A percentage of specific binding displaced (A2A adenosine receptors; Table 2, at 10^−4 M): 50% (10^−4)
rA1/hA3 (human A3 receptors; Table 2): ˜400

CCOC(=O)c1c(C)nc(-c2ccccc2)c(C(=O)OCC)c1C [Compound 33]
rA1/hA3 (human A3 receptors; Table 2): 1.7

CCOC(=O)c1c(-c2ccccc2)nc(CC)c2c1CCCNC2=O [Compound 30]
rA2A displacement of specific binding (class d) (A2A adenosine receptors; Table 2, at 10^−4 M): d (10^−4) (Displacement of <10% of specific binding at the indicated concentration (M).)

CCCOC(=O)c1c(-c2ccccc2F)nc(CC)c(C(=O)SCC)c1CCC [Compound 25]
rA1/hA3 (human A3 receptors; Table 2): 590

CCCOC(=O)c1c(-c2ccccc2)nc(CC)c(C(=O)SCC(F)(F)F)c1CCC [Compound 16]
rA1/hA3 (human A3 receptors; Table 2): 460

CCCOC(=O)c1c(-c2ccccc2)nc(CC)c(C(=O)SCC)c1CC [Compound 49a, 5-Propyl 2,4-diethyl-3-(ethylsulfanylcarbonyl)-6-phenylpyridine-5-carboxylate]
Ki (rat A3 receptors; [125I]AB-MECA, CHO cells, n = 3-5, read-out: rA3 Ki): 183 ± 33 nM
rA3/hA3 (rat A3 receptors; ratio of affinities at rat vs. human A3 receptors): 22
rA1/rA3 (rat A3 receptors; ratio of affinities rat A1 vs rat A3): 42
Ki (human A3 receptors; Table 2, compounds 33-58): 8.29 nM
rA1/hA3 (human A3 receptors; Table 2): 940
Ki (A1 adenosine receptors; Table 2, compounds 33-58): 7.77 ± 1.83 µM

CCCOC(=O)c1c(-c2ccccc2)nc(CC)c2c1CCOC2=O [Compound 29]
hA3 displacement of specific binding (class d) (human A3 receptors; Table 2, at 10^−4 M): d (10^−4) (Displacement of <10% of specific binding at the indicated concentration (M).)

CCOC(=O)c1c(C)nc(-c2ccccc2)c(C(=O)OCC)c1C=O [Compound 41, 3,5-Diethyl 2-methyl-4-formyl-6-phenylpyridine-3,5-dicarboxylate]
Ki (A2A adenosine receptors; Table 2, compounds 33-58): 2.56 ± 0.13 µM
Ki (A1 adenosine receptors; Table 2, compounds 33-58): 9.56 ± 4.09 µM

CCCOC(=O)c1c(-c2cccc(F)c2)nc(CC)c(C(=O)SCC)c1CCC [Compound 26]
rA1/hA3 (human A3 receptors; Table 2): 280

CCCOC(=O)c1c(-c2ccccc2)nc(CC)c(C(=O)SCCF)c1CCC [Compound 15]
rA1/hA3 (human A3 receptors; Table 2): 150

CCOC(=O)c1c(-c2ccccc2)nc(CC)c(C(=O)SCC)c1CCCN1C(=O)c2ccccc2C1=O [Compound 5]
rA2A displacement of specific binding (class d) (A2A adenosine receptors; Table 2, at 10^−4 M): d (10^−4) (Displacement of <10% of specific binding at the indicated concentration (M).)
hA3 percentage of specific binding displaced (human A3 receptors; Table 2, at 10^−6 M): 28% (10^−6)
